We go through 27 compounds from US9975907B2, “Pyrimidinones as PI3K inhibitors” (Incyte Corporation, priority 2009, dated 2018).

Where a name gives a salt, the structure may show the parent alone.

For this test, the target named is PI3Kδ (p110δ/p85α) (Homo sapiens (Human), UniProt O00329). Put plainly: PI3Kδ Scintillation Proximity Assay (Assay A3). In kind it is biochemical. The conditions noted are these: column b, Assay A3 (SPA), 20 μM ATP. From the text: [γ-^33P]ATP (10 mCi/mL) was purchased from Perkin-Elmer (Waltham, Mass.). Lipid kinase substrate, D-myo-Phosphatidylinositol 4,5-bisphosphate (PtdIns(4,5)P2)D (+)-sn-1,2-di-O-octanoylglyceryl, 3-O-phospho linked (PIP2), CAS 204858-53-7, was purchased from Echelon Biosciences (Salt Lake City, Utah). PI3Kδ (p110δ/p85α) was purchased from Millipore (Bedford, Mass.). ATP, MgCl2, DTT, EDTA, MOPS and CHAPS were purchased from Sigma-Aldrich (St. Louis, Mo.). Wheat Germ Agglutinin (WGA) YSi SPA Scintillation Beads was purchased from GE healthcare life sciences (Piscataway, N.J.).
Chain of PI3Kδ (p110δ/p85α) (O00329 whole entry, species assumed): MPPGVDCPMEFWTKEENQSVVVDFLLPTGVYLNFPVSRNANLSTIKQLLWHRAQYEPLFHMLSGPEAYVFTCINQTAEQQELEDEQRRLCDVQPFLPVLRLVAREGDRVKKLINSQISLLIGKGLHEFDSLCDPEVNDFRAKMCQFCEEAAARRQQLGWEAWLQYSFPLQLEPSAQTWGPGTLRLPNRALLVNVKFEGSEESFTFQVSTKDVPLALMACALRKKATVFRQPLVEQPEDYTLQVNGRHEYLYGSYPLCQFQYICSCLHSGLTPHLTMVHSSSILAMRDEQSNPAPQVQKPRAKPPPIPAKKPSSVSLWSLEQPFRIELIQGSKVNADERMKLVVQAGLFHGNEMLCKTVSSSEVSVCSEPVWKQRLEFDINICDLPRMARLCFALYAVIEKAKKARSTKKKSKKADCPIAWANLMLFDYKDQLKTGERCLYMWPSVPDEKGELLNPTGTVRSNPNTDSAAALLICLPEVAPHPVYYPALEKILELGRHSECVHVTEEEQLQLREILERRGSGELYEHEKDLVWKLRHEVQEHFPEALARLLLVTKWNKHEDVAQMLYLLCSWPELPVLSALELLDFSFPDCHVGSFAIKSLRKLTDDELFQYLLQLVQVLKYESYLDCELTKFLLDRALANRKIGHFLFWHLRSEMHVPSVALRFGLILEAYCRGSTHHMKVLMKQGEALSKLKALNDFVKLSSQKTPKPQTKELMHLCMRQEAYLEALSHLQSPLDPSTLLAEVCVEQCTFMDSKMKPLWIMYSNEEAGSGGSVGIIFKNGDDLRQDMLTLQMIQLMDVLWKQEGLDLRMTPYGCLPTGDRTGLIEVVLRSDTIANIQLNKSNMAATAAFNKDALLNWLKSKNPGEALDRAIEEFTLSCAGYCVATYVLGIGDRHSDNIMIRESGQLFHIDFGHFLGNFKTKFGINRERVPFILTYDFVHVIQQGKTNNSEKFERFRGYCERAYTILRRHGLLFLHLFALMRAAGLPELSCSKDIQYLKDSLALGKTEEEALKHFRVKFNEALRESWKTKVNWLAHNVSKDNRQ
Chain of PI3Kδ (p110δ/p85α) (P27986 whole entry partner, species assumed): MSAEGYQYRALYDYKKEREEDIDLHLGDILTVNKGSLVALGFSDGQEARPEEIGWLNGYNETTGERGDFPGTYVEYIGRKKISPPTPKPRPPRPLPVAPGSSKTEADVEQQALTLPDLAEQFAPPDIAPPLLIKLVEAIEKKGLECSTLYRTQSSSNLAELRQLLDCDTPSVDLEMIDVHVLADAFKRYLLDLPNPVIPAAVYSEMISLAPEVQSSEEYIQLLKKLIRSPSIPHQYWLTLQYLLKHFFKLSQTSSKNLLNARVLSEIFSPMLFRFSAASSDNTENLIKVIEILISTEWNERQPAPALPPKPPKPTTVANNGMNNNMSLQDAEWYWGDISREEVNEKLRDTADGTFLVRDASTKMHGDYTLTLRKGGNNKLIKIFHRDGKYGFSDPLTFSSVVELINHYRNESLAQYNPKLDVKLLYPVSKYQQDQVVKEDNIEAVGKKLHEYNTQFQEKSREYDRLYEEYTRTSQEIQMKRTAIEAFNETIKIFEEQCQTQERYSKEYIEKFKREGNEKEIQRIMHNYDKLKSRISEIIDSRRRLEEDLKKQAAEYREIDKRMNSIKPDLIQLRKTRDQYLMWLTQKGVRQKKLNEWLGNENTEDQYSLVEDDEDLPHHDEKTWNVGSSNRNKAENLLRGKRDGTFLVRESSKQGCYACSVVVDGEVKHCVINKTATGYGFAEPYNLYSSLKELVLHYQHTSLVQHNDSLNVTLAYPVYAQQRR
The kinase reaction was conducted in polystyrene 384-well matrix white plate from Thermo Fisher Scientific in a final volume of 25 μL. Inhibitors were first diluted serially in DMSO and added to the plate wells before the addition of other reaction components. The final concentration of DMSO in the assay was 0.5%. The PI3K assays were carried out at room temperature in 20 mM MOPS, pH 6.7, 10 mM MgCl2, 5 mM DTT and CHAPS 0.03%. Reactions were initiated by the addition of ATP, the final reaction mixture consisted of 20 μM PIP2, 20 μM ATP, 0.2 μCi [γ-^33P] ATP, 4 nM PI3Kδ. Reactions were incubated for 210 min and terminated by the addition of 40 μL SPA beads suspended in quench buffer: 150 mM potassium phosphate pH 8.0, 20% glycerol. 25 mM EDTA, 400 μM ATP. The final concentration of SPA beads was 1.0 mg/mL. After the plate sealing, plates were shaken overnight at room temperature and centrifuged at 1800 rpm for 10 minutes, the radioactivity of the product was determined by scintillation counting on Topcount (Perkin-Elmer). IC50 determination was performed by fitting the curve of percent control activity versus the log of the inhibitor concentration using the GraphPad Prism 3.0 software.
Background: In a scintillation proximity assay essentially only radioactivity close to the scintillant gives light.
In the case of `Cc1cccc2nc(C(C)Nc3nc(N)nc4[nH]cnc34)c(-c3ccc(Cl)cc3)c(=O)n12` (stereo not drawn) [Example 56, 2-{1-[(2-Amino-9H-purin-6-yl)amino]ethyl}-3-(4-chlorophenyl)-6-methyl-4H-pyrido[1,2-a]pyrimidin-4-one trifluoroacetic acid salt], the IC50 is more than 500 nM.
The compound `Cc1csc2nc(C(C)Nc3ncnc4[nH]ccc34)c(-c3cc(F)cc(F)c3)c(=O)n12` (stereo not drawn) [Example 17, 6-(3,5-difluorophenyl)-3-methyl-7-[1-(7H-pyrrolo[2,3-d]pyrimidin-4-ylamino)ethyl]-5H-[1,3]thiazolo[3,2-a]pyrimidin-5-one] yielded an IC50 of 100 to 500 nM.
The value for `Cc1cccc2nc(C(C)Nc3ncnc4[nH]cnc34)c(-c3cccc(Cl)c3)c(=O)n12` (stereo not drawn) [Example 53, 3-(3-Chlorophenyl)-6-methyl-2-[1-(9H-purin-6-ylamino)ethyl]-4H-pyrido[1,2-a]pyrimidin-4-one trifluoroacetic acid salt] was 100 to 500 nM; that for `CCc1cccc2nc(C(C)Nc3ncnc4[nH]cnc34)c(-c3cc(F)cc(F)c3)c(=O)n12` (stereo not drawn) [Example 76, 3-(3,5-Difluorophenyl)-6-ethyl-2-[1-(9H-purin-6-ylamino)ethyl]-4H-pyrido[1,2-a]pyrimidin-4-one trifluoroacetic acid salt] was 100 to 500 nM; that for `Cc1csc2nc(C(C)Nc3nc(N)nc4[nH]cnc34)c(-c3cccc(F)c3F)c(=O)n12` (stereo not drawn) [Example 34, 7-{1-[(2-amino-9H-purin-6-yl)amino]ethyl}-6-(2,3-difluorophenyl)-3-methyl-5H-[1,3]thiazolo[3,2-a]pyrimidin-5-one trifluoroacetic acid salt] was less than 50 nM.
Then `Cc1cccc2nc(C(C)Nc3nc(N)nc4[nH]cnc34)c(-c3cccc(Cl)c3)c(=O)n12` (stereo not drawn) [Example 54, 2-{1-[(2-Amino-9H-purin-6-yl)amino]ethyl}-3-(3-chlorophenyl)-6-methyl-4H-pyrido[1,2-a]pyrimidin-4-one trifluoroacetic acid salt], with less than 50 nM.
Then `Cc1csc2nc(C(C)Nc3nc(N)nc4[nH]cnc34)c(-c3ccccc3F)c(=O)n12` (stereo not drawn) [Example 33, 7-{1-[(2-amino-9H-purin-6-yl)amino]ethyl}-6-(2-fluorophenyl)-3-methyl-5H-[1,3]thiazolo[3,2-a]pyrimidin-5-one trifluoroacetic acid salt], with less than 50 nM.
As to `Cc1cc(-c2c(C(C)Nc3ncnc4[nH]cnc34)nc3cccc(C)n3c2=O)cnc1Cl` (stereo not drawn) [Example 81, 3-(6-Chloro-5-methylpyridin-3-yl)-6-methyl-2-[1-(9H-purin-6-ylamino)ethyl]-4H-pyrido[1,2-a]pyrimidin-4-one trifluoroacetic acid salt], the IC50 was more than 500 nM.
The value for `Cc1csc2nc(C(C)Nc3nc(N)nc4[nH]cnc34)c(-c3cc(F)cc(Cl)c3)c(=O)n12` (stereo not drawn) [Example 35, 7-{1-[(2-amino-9H-purin-6-yl)amino]ethyl}-6-(3-chloro-5-fluorophenyl)-3-methyl-5H-[1,3]thiazolo[3,2-a]pyrimidin-5-one trifluoroacetic acid salt] was 50 to 100 nM; that for `CC(Nc1nc(N)nc2[nH]cnc12)c1nc2sccn2c(=O)c1-c1cc(F)cc(F)c1` (stereo not drawn) [Example 24, 7-{1-[(2-amino-9H-purin-6-yl)amino]ethyl}-6-(3,5-difluorophenyl)-5H-[1,3]thiazolo[3,2-a]pyrimidin-5-one] was more than 500 nM; that for `Cc1csc2nc(C(C)Nc3nc(F)nc4[nH]cnc34)c(-c3cc(F)cc(F)c3)c(=O)n12` (stereo not drawn) [Example 18, 6-(3,5-difluorophenyl)-7-{1-[(2-fluoro-9H-purin-6-yl)amino]ethyl}-3-methyl-5H-[1,3]thiazolo[3,2-a]pyrimidin-5-one] was 100 to 500 nM.
The value for `Cc1cccc2nc(C(C)Nc3ncnc4[nH]cnc34)c(-c3ccc(F)c(F)c3)c(=O)n12` (stereo not drawn) [Example 68, 3-(3,4-Difluorophenyl)-6-methyl-2-[1-(9H-purin-6-ylamino)ethyl]-4H-pyrido[1,2-a]pyrimidin-4-one trifluoroacetic acid salt] was 100 to 500 nM; that for `Cc1cccc2nc(C(C)Nc3ncnc4[nH]cnc34)c(-c3ccc(Cl)cc3)c(=O)n12` (stereo not drawn) [Example 55, 3-(4-Chlorophenyl)-6-methyl-2-[1-(9H-purin-6-ylamino)ethyl]-4H-pyrido[1,2-a]pyrimidin-4-one trifluoroacetic acid salt] was more than 500 nM; that for `Cc1csc2nc(C(C)Nc3ncnc4[nH]cnc34)c(-c3cncc(F)c3)c(=O)n12` (stereo not drawn) [Example 42, 6-(5-fluoropyridin-3-yl)-3-methyl-7-[1-(9H-purin-6-ylamino)ethyl]-5H-[1,3]thiazolo[3,2-a]pyrimidin-5-one trifluoroacetic acid salt] was 100 to 500 nM.
Then `CCc1cccc2nc(C(C)Nc3ncnc4[nH]cnc34)c(-c3ccc(F)cc3)c(=O)n12` (stereo not drawn) [Example 78, 6-Ethyl-3-(4-fluorophenyl)-2-[1-(9H-purin-6-ylamino)ethyl]-4H-pyrido[1,2-a]pyrimidin-4-one trifluoroacetic acid salt], with less than 50 nM; and `Cc1ccc(-c2c(C(C)Nc3ncnc4[nH]cnc34)nc3cccc(C)n3c2=O)cc1` (stereo not drawn) [Example 64, 6-Methyl-3-(4-methylphenyl)-2-[1-(9H-purin-6-ylamino)ethyl]-4H-pyrido[1,2-a]pyrimidin-4-one trifluoroacetic acid salt], with less than 50 nM; and `CC(Nc1ncnc2[nH]cnc12)c1nc2sccn2c(=O)c1-c1cc(F)cc(F)c1` (stereo not drawn) [Example 25, 6-(3,5-difluorophenyl)-7-[1-(9H-purin-6-ylamino)ethyl]-5H-[1,3]thiazolo[3,2-a]pyrimidin-5-one], with more than 500 nM.
In the case of `Cc1cccc2nc(C(C)Nc3nc(N)nc4[nH]cnc34)c(-c3ccccc3)c(=O)n12` (stereo not drawn) [Example 50, 2-{1-[(2-Amino-9H-purin-6-yl)amino]ethyl}-6-methyl-3-phenyl-4H-pyrido[1,2-a]pyrimidin-4-one trifluoroacetic acid salt], the IC50 is less than 50 nM.
The value for `Cc1csc2nc(C(C)Nc3ncnc4[nH]cnc34)c(-c3cc(F)cc(Cl)c3)c(=O)n12` (stereo not drawn) [Example 37, 6-(3-chloro-5-fluorophenyl)-3-methyl-7-[1-(9H-purin-6-ylamino)ethyl]-5H-[1,3]thiazolo[3,2-a]pyrimidin-5-one trifluoroacetic acid salt] was 100 to 500 nM.
The value for `Cc1csc2nc(C(C)Nc3ncnc4[nH]cnc34)c(-c3nccs3)c(=O)n12` (stereo not drawn) [Example 20, 3-methyl-7-[1-(9H-purin-6-ylamino)ethyl]-6-(1,3-thiazol-2-yl)-5H-[1,3]thiazolo[3,2-a]pyrimidin-5-one trifluoroacetic acid salt] was less than 50 nM.
For `Cc1ccc(-c2c(C(C)Nc3ncnc4[nH]cnc34)nc3scc(C)n3c2=O)cc1` (stereo not drawn) [Example 31, 3-methyl-6-(4-methylphenyl)-7-[1-(9H-purin-6-ylamino)ethyl]-5H-[1,3]thiazolo[3,2-a]pyrimidin-5-one trifluoroacetic acid salt], the IC50 lay within 100 to 500 nM.
The value for `COc1cccc(-c2c(C(C)Nc3ncnc4[nH]cnc34)nc3cccc(C)n3c2=O)c1` (stereo not drawn) [Example 65, 3-(3-Methoxyphenyl)-6-methyl-2-[1-(9H-purin-6-ylamino)ethyl]-4H-pyrido[1,2-a]pyrimidin-4-one trifluoroacetic acid salt] was less than 50 nM; that for `Cc1cccc2nc(C(C)Nc3nc(N)nc4[nH]cnc34)c(-c3ccc(C#N)cc3)c(=O)n12` (stereo not drawn) [Example 62, 4-(2-{1-[(2-Amino-9H-purin-6-yl)amino]ethyl}-6-methyl-4-oxo-4H-pyrido[1,2-a]pyrimidin-3-yl)benzonitrile trifluoroacetic acid salt] was 100 to 500 nM.
`CC(Nc1nc(N)nc2[nH]cnc12)c1nc2ccccn2c(=O)c1-c1cc(F)cc(F)c1` (stereo not drawn) [Example 80, 2-{1-[(2-Amino-9H-purin-6-yl)amino]ethyl}-3-(3,5-difluorophenyl)-4H-pyrido[1,2-a]pyrimidin-4-one trifluoroacetic acid salt] returned an IC50 of 100 to 500 nM.
Then `Cc1cccc2nc(C(C)Nc3ncnc4[nH]cnc34)c(-c3cccc(F)c3F)c(=O)n12` (stereo not drawn) [Example 66, 3-(2,3-Difluorophenyl)-6-methyl-2-[1-(9H-purin-6-ylamino)ethyl]-4H-pyrido[1,2-a]pyrimidin-4-one trifluoroacetic acid salt], with less than 50 nM; and `Cc1csc2nc(C(C)Nc3ncnc4[nH]cnc34)c(-c3ccccc3F)c(=O)n12` (stereo not drawn) [Example 40, 6-(2-fluorophenyl)-3-methyl-7-[1-(9H-purin-6-ylamino)ethyl]-5H-[1,3]thiazolo[3,2-a]pyrimidin-5-one trifluoroacetic acid salt], with less than 50 nM; and `Cc1csc2nc(C(C)Nc3ncnc4[nH]cnc34)c(-c3cccc(Cl)c3)c(=O)n12` (stereo not drawn) [Example 36, 6-(3-chlorophenyl)-3-methyl-7-[1-(9H-purin-6-ylamino)ethyl]-5H-[1,3]thiazolo[3,2-a]pyrimidin-5-one trifluoroacetic acid salt], with 100 to 500 nM.

Broadly, the IC50 is the concentration that gives 50% inhibition.
